This is an account of results in patent US6583150B1, “Pharmaceutical composition based on polyaromatic compounds” (Laboratorie L. Lafon, priority 1999, dated 2003).

Data set [1] is described as follows: Determination of the maximum tolerated dose (MTD). The following applies: mouse, in vivo, ip; single intraperitoneal administration, survival over 14 days, B6D2F1/Jico mice. It is filed as in vivo. The procedure:
The evaluation of the maximum tolerated dose was carried out on 4- to 6-week-old B6D2F1/Jico mice. […] The value of the MTD (expressed in mg/kg) is determined from observing the survival rate of the animals over a period of 14 days after a single administration of the product under consideration. The change in the weight of the animals is also monitored over this period.

The next data set relates to U-87MG. Briefly: MTT cytotoxicity test, U-87MG. It is filed as cell-based. The settings on record: Homo sapiens, U-87MG glioblastoma, 72 hours, read-out: concentrations flanking the IC50. The procedure: (§1) The influence of the compounds of formulae I and II on neoplastic cells was evaluated using the MTT calorimetric test. The principle of the MTT test is based on the mitochondrial reduction by metabolically active live cells of the yellow-colored product MTT (3-(4,5-dimethylthiazol-2-yl)-2,5-diphenyltetrazolium bromide) to a blue-colored product, formazan. The amount of formazan thus obtained is directly proportional to the amount of live cells present in the culture well(s). This amount of formazan is measured by spectrophotometry.
(§2) The cell lines are maintained in monolayer culture at 37° C. in stoppered culture dishes containing 25 MM HEPES MEM (Minimum Essential Medium) base medium. This medium, which is suitable for growing a range of varied diploid or primary mammalian cells, is then supplemented: […]
(§3) with a an amount of 5% FCS (Fetal Calf Serum) decomplemented at 56° C. for 1 hour, with 0.6 mg/mL of L-glutamine, with 200 IU/mL of penicillin, with […] of streptomycin, with 0.1 mg/mL of gentamicin.
The 12 human cancer cell lines used were obtained from the American Type Culture Collection (ATCC, Rockville, Md., USA). These 12 cell lines are:
U-373MG (code ATCC: HTB-17) and U-87MG (code ATCC: HTB-14) which are two glioblastomas, Experimentally: 100 μl of a cell suspension containing 200 000 to 50 000 (depending on the cell type used) cells/mL of culture medium are inoculated in flat-bottomed 96-well multi-well plates and are incubated at 37° C. under an atmosphere comprising 5% CO2 and 70% humidity. […] The intensity of the resulting blue coloration, and thus of the conversion of the yellow MTT product into blue formazan by the cells that are still alive at the end of the experiment is quantified by spectrophotometry using a DYNATECH IMMUNOASSAY SYSTEM machine at wavelengths of 570 nm and 630 nm corresponding, respectively, to the maximum absorption wavelengths of formazan and to the background noise. […]
A general note: Formazan colour is commonly taken as a measure of viable cells.

In a further data set the test system is T-47D. Briefly: MTT cytotoxicity test, T-47D. It is filed as cell-based. The settings on record: Homo sapiens, T47D, T-47D breast cancer, 72 hours, read-out: concentrations flanking the IC50. The procedure:
as §1, §2, §3
The 12 human cancer cell lines used were obtained from the American Type Culture Collection (ATCC, Rockville, Md., USA). These 12 cell lines are: […]

As usually defined, the MTD is the largest dose that counted as tolerated. The low end stands for poorer tolerability, the high end for better tolerability. The compound `O=C1c2ncccc2-c2nc3ccccc3c3ccnc1c23` [CRL 8299, Benzo[b]pyrido[4,3,2-de][1,7]phenanthroline-8-one] came in with an MTD at 14 days in data set [1] of 80 mg/kg. The values for the IC50 with U-87MG and in the data set on T-47D were below 0.1 nM and 10 nM, respectively.
